Assay results from patent US10188613B2 (UNIVERSITY OF SOUTH FLORIDA, priority 1998, dated 2019).
Where a name gives a salt, the structure may show the parent alone.

Columns and labels:
Sprague-Dawley rats [1] = experiment: Mecamylamine blockade of nicotine-induced seizures (Example 2); assay type: in vivo, rat; settings: for nicotine-induced seizures (percentage of rats that seized): 0.1, 0.3, 1.0 mg/kg s.c. 15 min before nicotine 3.6 mg/kg s.c.; for duration and severity of seizure vs saline comparison group / seizure latency vs saline control: 0.3 and 1.0 mg/kg s.c.
[2] = tested on: vagotomized, pithed and artificially respired rats; experiment: Pithed rat: plasma catecholamine responses, HPLC (Example 3); assay type: in vivo
Description: The aim of the study was to determine whether mecamylamine and its stereoisomers have any effect on pressor responses and increases in plasma catecholamines in response to sympathetic nerve stimulation.
In the vagotomized, pithed and artificially respired rats (with oxygen mixed with air), the cardiovascular responses to test compounds measured were mean arterial blood pressure and heart rate; and the catecholamine responses measured were plasma norepinephrine, epinephrine and dopamine. These variables were measured in rats at rest and after electrical stimulation of sympathetic outflow at 0.2 Hz, 0.8 Hz, and 2.2 Hz for a one-minute duration (50 V, 1 msec pulse), and before and after administration of vehicle or a drug. Catecholamine assays were performed by specific HPLC testing. […] Statistical analysis were applied as appropriate.
Plasma catecholamine (CA) levels—norepinephrine (NE), epinephrine (EPI), and dopamine (DA)—were measured by HPLC with an electrochemical detector following administration of doses of all forms of mecamylamine.

[3] = tested on: vagotomized, pithed and artificially respired rats; experiment: Pithed rat: cardiovascular responses to sympathetic nerve stimulation (Example 3); assay type: in vivo; settings: for stimulation-induced increases in MAP: 0.8 and 2.2 Hz stimulation, i.v. bolus; for increases in heart rate (δ HR) vs saline-treated rats: 2.2 Hz, highest dose (10 mg/kg i.v.)
[4] = tested on: Sprague-Dawley derived rats; experiment: Prevention of sensitized locomotor stimulant response to nicotine (Example 1); assay type: in vivo, rat; settings: lower doses; nicotine test on day 9
TS patients = settings: Tourette's Syndrome patients; cited from earlier work
human α7 receptors = biological target: T1, human α7 receptors (Homo sapiens, UniProt P36544); experiment: Two-electrode voltage clamp, Xenopus oocytes expressing α7 receptors (Example 4); assay type: cell-based
T1 construct: expressed in transfected cells; host or cells: Xenopus laevis oocytes, cRNA injection

[5] = biological target: α1β1δε mouse muscle receptors (Mus musculus, UniProt P02716+P04756+P09690+P20782); experiment: Oocyte electrophysiology, muscle receptor selectivity (Example 4); assay type: cell-based
Description: (§1) For electrophysiology, oocyte recordings were made with an oocyte amplifier (e.g., Warner Instruments, Hamden, Conn., No. OC-725C) and RC-8 recording chamber. Oocytes were placed in the recording chamber with a total volume of about 0.6 ml and perfused at room temperature by frog Ringer's solution (115 mM NaCl, 2.5 mM KCl, 10 mM HEPES pH 7.3, and 1.8 mM CaCl2) containing 1 µM atropine to inhibit potential muscarinic responses. A Mariotte flask filled with Ringer's solution was used to maintain a constant hydrostatic pressure for drug delivery and washes. Drugs were diluted in perfusion solution and loaded into a 2 ml loop at the terminus of the perfusion line. A bypass of the drug-loading loop allowed bath solution to flow continuously while the drug loop was loaded. The drug application was synchronized with data acquisition by using a 2-way electronic valve. The rate of bath solution exchange and drug application was preferably about 6 ml/min. Current electrodes were filled with a solution containing 250 mMCsCl, 250 mM CsF and 100 mM EGTA and had resistances of 0.5-2 MΩ. Voltage electrodes were filed with 3M KCl and have resistances of 1-3MΩ. Oocytes with resting membrane potentials more positive than −30 mV were not used.
(§2) Holding currents immediately before agonist application were subtracted from measurements of the peak response to agonist. […]

Swiss-Webster mice [6] = experiment: Cocaine interaction study, locomotor activity (Example 6); assay type: in vivo, mouse; settings: 10 mg/kg ip + cocaine 20 mg/kg ip
[7] = biological target: hNET (norepinephrine transporter) (Homo sapiens, UniProt P23975); experiment: [125I]RTI-55 binding, HEK293-hNET membranes (Example 5); settings: [125I]RTI-55 competition
nicotine receptors = experiment: Oocyte electrophysiology, recovery time course and agonist test, receptor subtype not specified (Example 4); assay type: cell-based, human
Sprague-Dawley rats [8] = experiment: Effects of mecamylamine alone at high dose: seizures and spontaneous locomotor activity (Example 2); assay type: in vivo, rat; settings: 10 mg/kg s.c., 30 min
Description: Male Sprague-Dawley rats (n=96) weighing between 200 and 250 grams upon arrival were used for this study (Harlan Laboratories, Ind.). The rats were housed two per cage, allowed one week to acclimate to animal facility before testing, kept on a reverse lighting schedule (7:00-19:00 lights off), and allowed free access to food and water. Testing occurred between 10:00 a.m. and 3:00 p.m. in a dimly lit room maintained at 22° C. The experimental procedures carried out in this study were in compliance with the Guide for the Care and Use of Laboratory Animals (National Research Council, 1996) and had the prior approval of the University of South Florida Institutional Animal Care and Use Committee.
Observation of seizures and locomotor recordings were carried out in clear acrylic 41×41×30 cm test chambers inside Digiscan activity monitors (Accuscan, Inc.). Each monitor employs two arrays of infrared photocell beams (8×8 photocells, model RXYZCM-8) to detect several parameters of the rat's movement both horizontally and vertically. Data were collected in 5-min bins during testing.
All drugs were dissolved in physiological saline, and nicotine was adjusted to pH with HCl to 7.40. […] All doses are expressed as the free base of the drug. […]
Data was analyzed using a one-way analysis of variance followed by Fishers least significance test for multiple comparisons. […]

[9] = biological target: NMDA receptor subunits NR1 and NR2b (Homo sapiens, UniProt Q05586+Q13224); experiment: Oocytes coexpressing NMDA receptor subunits (Example 4); assay type: cell-based; settings: 100 μM; reversible after a 5-min wash
Description: as §1, §2

human α3β2 receptors = biological target: T2, human α3β2 receptors (Homo sapiens, UniProt P17787+P32297); experiment: Two-electrode voltage clamp, Xenopus oocytes expressing α3β2 receptors (Example 4); assay type: cell-based
T2 construct: expressed in transfected cells; host or cells: Xenopus laevis oocytes, cRNA injection

human α4β2 receptors = biological target: T3, human α4β2 receptors (Homo sapiens, UniProt P17787+P43681); experiment: Two-electrode voltage clamp, Xenopus oocytes expressing α4β2 receptors (Example 4); assay type: cell-based
T3 construct: expressed in transfected cells; host or cells: Xenopus laevis oocytes, cRNA injection
Description: Voltage dependence and binding reversibility also were determined. Mature female Xenopus laevis African toads were used as a source of oocytes. After linearization and purification of cloned cDNAs, RNA transcripts were prepared in vitro using the appropriate mMessage mMachine® kit from Ambion Inc. (Austin Tex.). Harvested oocytes were treated with collagenase (Worthington Biochemical Corporation, Freehold N.J.) for two hr at room temperature in calcium-free solution. Subsequently stage 5 oocytes were isolated and injected with 50 nL each of a mixture of the appropriate subunit(s) cRNAs. Recordings were made about 1-7 days after cRNA injection.
as §1, with “Voltage electrodes were filed with 3M KCl and have resistances of 1-3MΩ. Oocytes with resting membrane potentials more positive than −30 mV were not used.” left out
For experiments assessing voltage-dependence of drug inhibition, oocytes were initially voltage clamped at a holding potential of −40 mV or −90 mV and […] control application of ACh alone was delivered. […] Residual inhibition was evaluated with a subsequent application of ACh alone at the test potential, after a 5-min wash period.

human α3β4 receptors = biological target: T4, human α3β4 receptors (Homo sapiens, UniProt P30926+P32297); experiment: Two-electrode voltage clamp, Xenopus oocytes expressing α3β4 receptors (Example 4); assay type: cell-based
T4 construct: expressed in transfected cells; host or cells: Xenopus laevis oocytes, cRNA injection

[10] = biological target: hDAT (dopamine transporter) (Homo sapiens, UniProt Q01959); experiment: [125I]RTI-55 binding, HEK293-hDAT membranes (Example 5); settings: [125I]RTI-55 competition
[11] = biological target: hSERT (serotonin transporter) (Homo sapiens, UniProt P31645); experiment: [125I]RTI-55 binding, HEK293-hSERT membranes (Example 5); settings: [125I]RTI-55 competition
Swiss-Webster mice [12] = experiment: Locomotor depression test, compound alone (Example 6); assay type: in vivo, mouse
[13] = 0.1 mg/kg s.c., nicotine 3.6 mg/kg
[14] = after co-application of 10 μM with ACh

T2 sequence (P32297 32-505): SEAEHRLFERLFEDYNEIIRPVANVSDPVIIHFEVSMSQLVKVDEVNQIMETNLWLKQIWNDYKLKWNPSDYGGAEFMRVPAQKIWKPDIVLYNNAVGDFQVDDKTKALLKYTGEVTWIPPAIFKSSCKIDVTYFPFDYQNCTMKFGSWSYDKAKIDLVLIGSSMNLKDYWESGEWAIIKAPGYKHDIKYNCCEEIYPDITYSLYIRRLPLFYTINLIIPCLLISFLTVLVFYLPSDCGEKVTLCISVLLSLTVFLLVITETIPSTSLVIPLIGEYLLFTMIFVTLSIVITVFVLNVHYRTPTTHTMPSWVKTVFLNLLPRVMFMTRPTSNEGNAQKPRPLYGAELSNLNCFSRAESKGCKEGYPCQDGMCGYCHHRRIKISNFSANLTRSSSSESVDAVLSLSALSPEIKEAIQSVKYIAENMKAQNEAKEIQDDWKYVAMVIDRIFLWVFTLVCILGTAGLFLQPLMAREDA
T2 sequence (P17787 26-502): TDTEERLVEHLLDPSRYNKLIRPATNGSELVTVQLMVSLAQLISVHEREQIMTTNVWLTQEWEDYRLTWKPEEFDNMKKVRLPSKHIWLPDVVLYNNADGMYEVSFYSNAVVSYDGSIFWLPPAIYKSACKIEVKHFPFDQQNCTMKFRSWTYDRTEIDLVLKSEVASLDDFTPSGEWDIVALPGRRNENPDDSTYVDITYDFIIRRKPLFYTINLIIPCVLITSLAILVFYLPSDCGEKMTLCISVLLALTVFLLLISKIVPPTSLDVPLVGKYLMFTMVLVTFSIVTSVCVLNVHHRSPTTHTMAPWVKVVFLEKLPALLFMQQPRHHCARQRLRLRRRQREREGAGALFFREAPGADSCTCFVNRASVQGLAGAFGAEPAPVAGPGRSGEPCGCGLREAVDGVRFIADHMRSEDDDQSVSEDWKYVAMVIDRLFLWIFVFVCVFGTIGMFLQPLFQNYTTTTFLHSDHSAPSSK
T3 sequence (P43681 29-627 limits assumed): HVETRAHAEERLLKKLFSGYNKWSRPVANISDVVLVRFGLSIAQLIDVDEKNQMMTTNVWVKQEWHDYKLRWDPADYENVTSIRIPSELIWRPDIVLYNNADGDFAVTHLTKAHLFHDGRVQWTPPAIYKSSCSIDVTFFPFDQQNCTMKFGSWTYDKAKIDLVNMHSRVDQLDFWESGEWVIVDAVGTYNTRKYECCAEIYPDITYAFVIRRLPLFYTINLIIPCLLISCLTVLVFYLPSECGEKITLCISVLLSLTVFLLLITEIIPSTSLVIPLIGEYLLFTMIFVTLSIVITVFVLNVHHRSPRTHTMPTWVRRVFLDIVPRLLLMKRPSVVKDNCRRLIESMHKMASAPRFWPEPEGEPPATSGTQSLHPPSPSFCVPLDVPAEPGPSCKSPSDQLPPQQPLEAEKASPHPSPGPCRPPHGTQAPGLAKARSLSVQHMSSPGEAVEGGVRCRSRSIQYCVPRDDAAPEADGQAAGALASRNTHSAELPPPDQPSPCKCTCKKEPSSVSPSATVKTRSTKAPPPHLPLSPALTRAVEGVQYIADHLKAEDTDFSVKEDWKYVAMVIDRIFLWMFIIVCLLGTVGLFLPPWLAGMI
T3 sequence (P17787 26-502): as the sequence (P17787 26-502) above
T1 sequence (P36544 23-502): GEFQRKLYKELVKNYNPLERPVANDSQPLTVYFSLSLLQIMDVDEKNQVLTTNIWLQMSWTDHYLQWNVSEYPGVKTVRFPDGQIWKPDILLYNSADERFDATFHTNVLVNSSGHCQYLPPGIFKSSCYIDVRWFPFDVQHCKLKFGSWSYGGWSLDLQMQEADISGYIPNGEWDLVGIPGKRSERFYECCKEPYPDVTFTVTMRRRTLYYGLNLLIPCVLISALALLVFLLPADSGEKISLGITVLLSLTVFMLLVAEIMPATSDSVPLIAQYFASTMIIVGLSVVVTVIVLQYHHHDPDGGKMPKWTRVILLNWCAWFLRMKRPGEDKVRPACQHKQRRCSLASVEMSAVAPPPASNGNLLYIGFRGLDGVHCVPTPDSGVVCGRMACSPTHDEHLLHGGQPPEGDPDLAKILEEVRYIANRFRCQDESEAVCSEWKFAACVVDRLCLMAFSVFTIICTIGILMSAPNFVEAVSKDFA
Chain of α1β1δε mouse muscle receptors (P04756 21-457): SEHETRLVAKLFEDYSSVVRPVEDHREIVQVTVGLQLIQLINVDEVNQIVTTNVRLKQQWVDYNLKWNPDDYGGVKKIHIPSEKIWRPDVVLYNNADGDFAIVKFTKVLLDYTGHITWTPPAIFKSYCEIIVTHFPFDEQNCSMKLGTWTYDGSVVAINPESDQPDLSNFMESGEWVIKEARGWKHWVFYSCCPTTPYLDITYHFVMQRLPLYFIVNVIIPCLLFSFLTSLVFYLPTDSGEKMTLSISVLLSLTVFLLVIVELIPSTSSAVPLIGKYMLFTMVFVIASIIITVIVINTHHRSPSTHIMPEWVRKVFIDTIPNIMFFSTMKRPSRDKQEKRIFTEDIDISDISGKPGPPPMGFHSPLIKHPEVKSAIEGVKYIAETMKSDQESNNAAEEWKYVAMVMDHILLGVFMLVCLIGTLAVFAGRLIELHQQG
Chain of α1β1δε mouse muscle receptors (P09690 24-501): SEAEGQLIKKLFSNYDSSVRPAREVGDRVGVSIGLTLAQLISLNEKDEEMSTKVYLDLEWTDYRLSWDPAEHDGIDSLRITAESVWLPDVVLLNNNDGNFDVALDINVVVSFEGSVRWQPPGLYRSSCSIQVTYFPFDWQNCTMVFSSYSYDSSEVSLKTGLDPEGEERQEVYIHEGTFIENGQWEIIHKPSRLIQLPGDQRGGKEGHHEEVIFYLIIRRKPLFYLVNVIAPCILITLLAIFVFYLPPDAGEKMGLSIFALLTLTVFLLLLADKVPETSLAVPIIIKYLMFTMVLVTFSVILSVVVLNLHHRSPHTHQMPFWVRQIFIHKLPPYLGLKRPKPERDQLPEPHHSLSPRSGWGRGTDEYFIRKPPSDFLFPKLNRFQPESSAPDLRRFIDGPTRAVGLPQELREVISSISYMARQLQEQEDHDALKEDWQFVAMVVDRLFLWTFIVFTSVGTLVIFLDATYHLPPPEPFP
Chain of α1β1δε mouse muscle receptors (P02716 25-520): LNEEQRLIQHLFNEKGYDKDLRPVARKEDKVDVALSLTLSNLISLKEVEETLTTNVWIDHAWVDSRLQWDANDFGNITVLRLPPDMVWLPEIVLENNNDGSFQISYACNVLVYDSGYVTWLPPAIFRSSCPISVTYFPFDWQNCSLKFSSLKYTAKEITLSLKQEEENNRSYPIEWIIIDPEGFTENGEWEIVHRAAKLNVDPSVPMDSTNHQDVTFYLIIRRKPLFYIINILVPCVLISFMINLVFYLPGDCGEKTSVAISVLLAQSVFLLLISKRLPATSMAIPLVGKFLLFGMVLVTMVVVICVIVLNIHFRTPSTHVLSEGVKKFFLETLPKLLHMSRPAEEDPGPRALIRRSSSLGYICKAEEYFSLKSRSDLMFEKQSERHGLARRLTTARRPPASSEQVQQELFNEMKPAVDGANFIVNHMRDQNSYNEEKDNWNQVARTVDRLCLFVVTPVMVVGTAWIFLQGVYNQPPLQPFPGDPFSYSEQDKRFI
Chain of α1β1δε mouse muscle receptors (P20782 21-493): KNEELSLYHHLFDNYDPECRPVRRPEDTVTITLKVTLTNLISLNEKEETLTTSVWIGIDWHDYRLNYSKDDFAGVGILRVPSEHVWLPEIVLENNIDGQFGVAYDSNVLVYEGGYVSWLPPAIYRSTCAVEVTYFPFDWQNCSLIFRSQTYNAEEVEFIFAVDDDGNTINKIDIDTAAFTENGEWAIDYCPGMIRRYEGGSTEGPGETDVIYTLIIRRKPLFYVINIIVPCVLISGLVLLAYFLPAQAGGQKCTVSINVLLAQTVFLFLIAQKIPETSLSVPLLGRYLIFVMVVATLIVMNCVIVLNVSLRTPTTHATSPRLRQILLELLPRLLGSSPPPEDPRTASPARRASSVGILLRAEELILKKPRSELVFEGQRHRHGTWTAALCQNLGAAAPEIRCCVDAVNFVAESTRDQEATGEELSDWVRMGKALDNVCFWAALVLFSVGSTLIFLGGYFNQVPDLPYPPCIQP
T4 sequence (P32297 32-505): as the sequence (P32297 32-505) above
T4 sequence (P30926 22-498): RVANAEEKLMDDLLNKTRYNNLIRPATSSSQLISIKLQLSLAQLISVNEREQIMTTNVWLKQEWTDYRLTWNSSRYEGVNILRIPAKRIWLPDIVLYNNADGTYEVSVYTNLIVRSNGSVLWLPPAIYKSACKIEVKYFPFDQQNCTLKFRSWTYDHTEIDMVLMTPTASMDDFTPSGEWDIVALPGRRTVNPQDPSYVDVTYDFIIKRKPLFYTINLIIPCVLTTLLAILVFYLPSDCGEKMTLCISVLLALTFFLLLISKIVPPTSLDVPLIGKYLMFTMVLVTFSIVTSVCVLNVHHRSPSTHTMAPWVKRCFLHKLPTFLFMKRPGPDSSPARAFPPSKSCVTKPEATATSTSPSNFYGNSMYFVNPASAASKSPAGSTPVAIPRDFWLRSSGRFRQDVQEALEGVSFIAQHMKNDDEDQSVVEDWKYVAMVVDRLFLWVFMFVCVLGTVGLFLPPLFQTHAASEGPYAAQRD

## CN[C@]1(C)[C@H]2CC[C@H](C2)C1(C)C [exo-R-mecamylamine, reference compound]
Sprague-Dawley rats [1]; [13]
  duration of seizure vs saline comparison group: did not differ from their saline comparison group
Sprague-Dawley rats [1]
  nicotine-induced seizures (percentage of rats that seized): prevented nicotine-induced seizures in a dose-dependent manner
Sprague-Dawley rats [1]; nicotine 3.6 mg/kg
  duration and severity of seizure vs saline comparison group: significantly different from their saline comparison groups
  seizure latency vs saline control: significantly longer latency
[2]; 2.2 Hz
  plasma DA levels on sympathetic stimulation vs baseline: significant increases in plasma DA levels
  stimulation-induced increases in plasma NE levels vs saline: significantly less
[3]
  stimulation-induced increases in MAP: completely abolished
  increases in heart rate (δ HR) vs saline-treated rats: significantly lowered the increases in heart rate
[4]
  effectiveness of isomers compared, particularly center distance and vertical activity: generally more effective at lower doses

## O=C(CCCN1CCC(O)(c2ccc(Cl)cc2)CC1)c1ccc(F)cc1 [haloperidol]
TS patients
  cases in which treatment is effective / success rate for motor and vocal tics: about 70%

## Clc1cccc(Cl)c1N=C1NCCN1 [clonidine]
TS patients
  cases in which treatment is effective / success rate for motor and vocal tics: 40%

## CN[C@@]1(C)[C@@H]2CC[C@@H](C2)C1(C)C [exo-S-mecamylamine, exo-S-N,2,3,3-tetramethyl-bicycl-o-[2.1.1]heptan-2-amine hydrochloride]
Human α7 receptors; 10 μM, -40 mV vs 90 mV [sic]
  voltage dependence of inhibition: significantly different responses
Human α7 receptors; 5 min wash
  residual inhibition: control ACh response 5 min after exposure: least for α7 receptors
Human α7 receptors; control ACh 300 μM, -50 mV
  IC50 rank among receptor subtypes: least potent at inhibiting α7 receptors
[5]; 5-min wash
  inhibition of muscle receptors after wash: fully reversed
[5]; control ACh 3 μM
  effect on muscle receptors: very little effect
Swiss-Webster mice [6]
  locomotion at 30 minutes vs saline/cocaine: significantly different from the result of cocaine alone
[7]
  affinity for binding site compared with cocaine: lower than the affinity of cocaine
Nicotine receptors; co-application of 10 μM and ACh at control concentration
  initial inhibition: greater than 50%
Nicotine receptors; compared with exo-R-mecamylamine
  off-loading from some receptors: slower than exo-R-mecamylamine
Sprague-Dawley rats [1]; [13]
  duration of seizure vs saline comparison group: significantly different from their saline comparison groups
  seizure latency vs saline comparison group: significantly longer seizure latency
Sprague-Dawley rats [1]
  nicotine-induced seizures (percentage of rats that seized): prevented nicotine-induced seizures in a dose-dependent manner
Sprague-Dawley rats [1]; nicotine 3.6 mg/kg
  duration and severity of seizure vs saline comparison group: significantly different from their saline comparison groups
  seizure latency vs saline control: significantly longer latency
Sprague-Dawley rats [1]; lowest dose 0.1 mg/kg
  number of rats with nicotine-seizures compared with exo-R-mecamylamine: fewer rats had nicotine-seizures
Sprague-Dawley rats [8]
  spontaneous locomotor activity, total distance traveled: signigicantly less locomotor depressant effects
[9]
  inhibition of response to 10 μM glutamate+10 μM glycine: transient inhibition
Human α3β2 receptors; 5 μM, -40 mV vs 90 mV [sic]
  voltage dependence of inhibition: significantly different responses
Human α3β2 receptors; 5 min wash
  residual inhibition: control ACh response 5 min after exposure: greatest for β2-containing receptors
Human α3β2 receptors; [14]
  time constant of recovery: about 33 min
Human α4β2 receptors; 5 μM, -40 mV vs 90 mV [sic]
  voltage dependence of inhibition: significant voltage dependence
Human α4β2 receptors; 5 min wash
  residual inhibition: control ACh response 5 min after exposure: greatest for β2-containing receptors
Human α4β2 receptors; [14]
  time constant of recovery, compared with α3β2: similar
Human α3β4 receptors; 1 μM, -40 mV vs 90 mV [sic]
  voltage dependence of inhibition: significant voltage dependence
Human α3β4 receptors; 5 min wash
  residual inhibition: control ACh response 5 min after exposure: marked decrease in subsequent control response to ACh
[10]
  affinity for binding site compared with cocaine: lower than the affinity of cocaine
[2]; 2.2 Hz
  stimulation-induced increases in plasma NE levels vs saline: significantly decreased stimulation-evoked plasma NE increases
  stimulation-induced plasma EPI responses: significant decrease in stimulation-induced plasma EPI responses
[2]; of the three forms
  overall effectiveness on plasma CA and sympathetically-mediated cardiovascular responses: most effective in reducing plasma CA
[11]
  affinity for binding site compared with cocaine: lower than the affinity of cocaine
[3]
  stimulation-induced increases in MAP: completely abolished
  increases in heart rate (δ HR) vs saline-treated rats: significantly lowered the increases in heart rate
[3]; of the three forms
  potency rank, stimulation-induced pressor responses: most potent
Swiss-Webster mice [12]; 1 and 3 mg/kg ip
  effect on locomotor activity in the last 30 minutes of testing: Stimulant effects
Swiss-Webster mice [12]; ip, 20 min before testing, maximal depression = 0 counts in 30 minutes
  dose producing one half of the maximal depressant activity: 8.5 mg/kg
